# Measurements reported in US10874719B2, “Nucleotide phosphate dissipation as a treatment for vascular disorders” (THE REGENTS OF THE UNIVERSITY OF MICHIGAN, priority 2007, dated 2020).
# Assays:
# IFN-γ and IL-2 mRNA = assay: Tracheal allograft T-helper 1 cytokine mRNA, real time PCR; format: in vivo, mouse; details: compared with vehicle; for expression of IFN-γ mRNA: wild type allograft
# From the text: A heterotopic model, characterized by epithelial and subepithelial lymphocyte infiltration by one was also used (Lama, et al, Am J Pathol 169: 47-60, 2006). Donor tracheas were harvested as described above. The trachea was inserted in a subcutaneous pouch created after a 3-mm incision and blunt dissection in the back of the neck. The skin pocket was closed with a size 5.0 nylon suture.
# Total RNA was extracted from frozen each mouse tracheas using RNeasy Mini Protocol for Tissues (Qiagen, Valencia, Calif.) and reverse transcribed using a High Capacity cDNA Archive Kit (ABI, Foster City, Calif.), in each case according to the manufacturer's instructions. One microgram of sample RNA was transcribed to cDNA. Real-time PCR was performed on an Applied Biosystems 7000 Real-Time PCR System (ABI) data collection system, and analyses were performed using the accompanying software.
# PCR fluorogenic probes for all the target genes and the endogenous reference were purchased as TaqMan® Gene Expression Assays (ABI).
# A2A receptor agonist 2-p-(2-carboxyethyl) phenethylamino-5′-N-ethylcarboxamidoadenosine (CGS-21680, 2 mg/kg/day), A2A receptor antagonist 5-Amino-7-(β-phenylethyl)-2-([…])pyrazolo(4,3-e)-1,2,4-triazolo1,5-c pyrimidine (SCH-58261, 2 mg/kg/day), A3 receptor agonist [2-chloro-N^6-(3-iodobenzyl)adenosine-5′-N-methyluronamide (Cl-IBMECA 1 mg/kg/day), A3 receptor antagonist 3-Ethyl 5-benzyl 2-methyl-6-phenyl-4-phenylethynyl-1,4-(±)-dihydropyridine-3,5-dicarboxylate (MRS 1191 2 mg/kg/day) or vehicle (0.1% DMSO in PBS) was administered in a sterile 0.1-ml volume by intraperitoneal injection every 12 hours after surgery. The doses of the adenosine-receptor agonists' were chosen according to previous studies (Erdmann, et al, Blood 105: 4707, 4714, 2005; Hasko, et al, Faseb J 14: 2065-2074, 2000; Satoh, et al, Pancreas 24: 75-82, 2002; Satoh, Gastroenterology 119: 829-836, 2000). The adenosine receptor agonists and antagonists were obtained from Sigma Chemicals (St. Louis, Mo.).
# [1] = test system: T lymphocytes transmigrating across bEnd.3 endothelial cells; assay: Allomismatched transmigration coculture of endothelial cells and T lymphocytes; format: cell-based, mouse
# From the text: (§1) T lymphocytes were purified from splenocytes of CD73^+/+ and CD73^−/− mice (H-2^b) using a Dynal mouse T cell negative isolation kit (Invitrogen). The BALB/c (H-2^d)-derived endothelial cell line bEnd.3 was obtained from American Type Culture Collection (Manassas, Va.).
# (§2) To further elucidate the effects of CD73 on interactions between endothelial cells and T lymphocytes found in cardiac allografts, we performed an allomismatched coculture of endothelial cells (H-2^d) and lymphocytes (H-2^b; CD73^+/+ or CD73^−/−) with or without APCP in vitro. First, we evaluated the contribution of T lymphocytes to endothelial cells on the simple coculture experiments. […] Next, we evaluated the contribution of endothelial cells to T lymphocytes utilizing transmigration coculture experiments.
# [2] = test system: endothelial cell line bEnd.3 with T lymphocytes; assay: Allomismatched simple coculture of endothelial cells and T lymphocytes; format: cell-based, mouse; details: 72-h coculture with CD73−/− T-lymphocytes, addition of APCP
# From the text: as §1, §2
# tracheal allografts = assay: Orthotopic trachea transplant model: graft luminal occlusion and CD3 positive T cell infiltration; format: in vivo, mouse
# From the text: Two well-established tracheal transplant models were used to study the effect of CD73 on the pathogenesis of allograft rejection. The first model was the previously described double lumen airway (orthotopic) transplant model for studying chronic airway rejection (Harada, et al, Am J Physiol Lung Cell Mol Physiol 293: […]-130, 2007; Minamoto, et al, J Exp Med 202: 283-294, 2005). Briefly, after anesthesia, donor mice were exsanguinated, and whole trachea was harvested by transecting below the cricoid cartilage distal to the […] bifurcation under sterile conditions. Recipient mice were similarly anesthetized, and the whole trachea was exposed. Distal (the seventh intercartilaginous space) and proximal (immediately subjacent to the cricoid cartilage area) orifices positioned on the recipient trachea were anastomosed with both ends of the tracheal graft. This air permissive model mimics lymphocytic bronchitis and allows studies focusing on inflammation. All surgeries were performed using a Leitz-Wild surgical microscope (Urban Engineering, Burbank, Calif.) under ×16 magnifications. Grafts were harvested at the indicated time points and embedded en bloc in Tissue Freezing Medium (Triangle Biomedical Sciences, Durham, N.C.) in Disposable Base Molds (Richard-Allan Scientific, Kalamazoo, Mich.) in liquid nitrogen and stored at -80° C. until the time of analysis. For the orthotopic model histochemical staining was performed for elastin (Accustain; Sigma-Aldrich) to determine graft luminal occlusion on 5-μm-thick sections. Immunostaining was also performed using, serial adjacent sections from each group, with primary antibodies directed against a pan-T-cell marker (hamster anti-mouse CD3; BD Pharmingen, San Diego, Calif.). Morphometric measurements of cross-sectional areas were performed by blindly tracing both epithelial and subepithelial areas using a computer-assisted image analysis system (AxoCamHR; Carl Zeiss Microimaging, Thornwood, N.Y.). […]-130, 2007). Quantitative analysis of T cell infiltration was performed by manually counting the number of CD3-positive cells in epithelial and subepithelial layer under high-power magnified fields. […] The doses of the adenosine-receptor agonists' were chosen according to previous studies ([…], et al, Blood 105: 4707, 4714, 2005; Hasko, et al, Faseb J 14: 2065-2074, 2000; Satoh, et al, Pancreas 24: 75-82, 2002; Satoh, Gastroenterology 119: 829-836, 2000). The adenosine receptor agonists and antagonists were obtained from Sigma Chemicals (St. Louis, Mo.).
# cardiac allografts [3] = assay: Heterotopic cardiac transplantation: graft survival; format: in vivo, mouse
# Experimental: (§3) Completely allomismatched murine heterotopic cardiac transplantation was performed for the present study, as previously described in detail by us^13. Two groups (n=6 in each group) were used to study donor sources of CD73 (CD73^+/+ or CD73^−/− donors into B10A recipients) and another two groups (n=6 in each group) were used to study recipient sources (B10A donors into CD73^+/+ or CD73^−/− recipients). In experiments of adenosine receptor modulators, CBA/J mice were used as donors or recipients instead of B10A mice (n=4 to 6 in each group, as indicated).
# Database management and statistical analysis were performed with the Statview version 5.0 software (SAS institute Inc., Cary, N.C.). All values are expressed as means±SEM. Kaplan-Meier analysis was performed to evaluate graft survival, and survival differences were compared by a log-rank test. Comparisons among groups were performed with an unpaired Student t test or one-way analysis of variance (ANOVA) where appropriate. Values of P<0.05 were considered statistically significant.
# (§4) To further evaluate the CD73-mediated contribution of specific AR subtypes during allograft rejection or CAV, we performed heterotopic cardiac transplantation using AR modulators given intraperitoneally. First, we examined which AR is acutely responsible for increased vascular leakage in the murine heterotopic cardiac transplantation model. […] Based on the results of this graft permeability assay, we selected A2AR agonists (A2A, CGS21680; A2B, NECA) to establish their potential effects on cardiac allograft rejection or vasculopathy. […] The next set of experiments was designed to measure the role of the A2BAR in CAV.
# cardiac allografts [4] = assay: Heterotopic cardiac transplantation: cardiac allograft vasculopathy, luminal occlusion of graft coronary arteries; format: in vivo, mouse; details: day 30 post-transplantation, both CD73+/+ and CD73−/− donors or recipients, vs wild-type non-treatment controls
# Experimental: as §3, with “indicated). […]” for “indicated).”
# as §4
# [5] = CD73−/− donors or recipients, compared with wild-type non-treatment controls
# [6] = compared with non-treatment controls
structure (smiles),measurement,setting,value
"CCOC(=O)C1=C(C)NC(c2ccccc2)=C(C(=O)OCc2ccccc2)C1C#Cc1ccccc1 (racemic) [MRS 1191, 3-Ethyl 5-benzyl 2-methyl-6-phenyl-4-phenylethynyl-1,4-(±)-dihydropyridine-3,5-dicarboxylate]",expression of IFN-γ mRNA,IFN-γ and IL-2 mRNA,did not affect
Nc1ncnc2c1ncn2[C@@H]1O[C@H](COP(=O)(O)CP(=O)(O)O)[C@@H](O)[C@H]1O [APCP],transmigration of T-lymphocytes,[1]; 24-h coculture of CD73−/− T-lymphocytes,significantly enhanced
same,IFN-γ mRNA upregulation in post-transmigrated T-lymphocytes,[1]; coculture of CD73−/− T-lymphocytes,no significant enhancement
same,endothelial cell TNF-α mRNA upregulation,[2],significantly enhanced
same,endothelial cell VCAM-1 mRNA upregulation,[2],significantly enhanced
"CCNC(=O)[C@H]1O[C@@H](n2cnc3c(N)nc(NCCc4ccc(CCC(=O)O)cc4)nc32)[C@H](O)[C@@H]1O [CGS-21680, 2-p-(2-carboxyethyl) phenethylamino-5′-N-ethylcarboxamidoadenosine]",CD3 positive cell infiltrations,"tracheal allografts; CD73−/− allografts, mean±SEM",79±28
same,luminal obliteration,"tracheal allografts; CD73−/− allografts, mean±SEM",36±3%
same,CD3 positive cell infiltrations,"tracheal allografts; wild type allografts, compared with vehicle",less
same,graft luminal obliteration,"tracheal allografts; wild type allografts, compared with vehicle, 1 week after transplantation, i.p. every 12 hours",significantly reduced
same,graft survival,cardiac allografts [3]; [5],no significant increase
same,graft survival,cardiac allografts [3]; [6],significantly increased
same,expression of IFN-γ mRNA,IFN-γ and IL-2 mRNA,down-regulated
same,expression of IL-2 mRNA,IFN-γ and IL-2 mRNA; wild type allografts,down-regulated
"CNC(=O)[C@H]1O[C@@H](n2cnc3c(NCc4cccc(I)c4)nc(Cl)nc32)[C@H](O)[C@@H]1O [Cl-IBMECA, 2-chloro-N^6-(3-iodobenzyl)adenosine-5′-N-methyluronamide]",expression of IFN-γ mRNA,IFN-γ and IL-2 mRNA,did not affect
CCNC(=O)[C@H]1O[C@@H](n2cnc3c(N)ncnc32)[C@H](O)[C@@H]1O [NECA],graft survival,cardiac allografts [3]; [5],significantly increased
same,graft survival compared with CGS21680-treated recipients,cardiac allografts [3]; NECA-treated vs CGS21680-treated recipients,significantly longer
same,graft survival,cardiac allografts [3]; [6],significantly increased
same,severity of luminal occlusion,cardiac allografts [4],significantly attenuated
"Nc1nc2c(cnn2CCc2ccccc2)c2nc(-c3ccco3)nn12 [SCH-58261, 5-Amino-7-(β-phenylethyl)-2-([…])pyrazolo(4,3-e)-1,2,4-triazolo1,5-c pyrimidine]",expression of IFN-γ mRNA,IFN-γ and IL-2 mRNA,did not affect
